This is an account of results in patent publication US7125990B2, “Imidazolyl derivatives as corticotropin releasing factor inhibitors” (Bristol-Myers Squibb COmpany, priority 2001, dated 2006).

The assay addresses T1, CRF1 receptors (Homo sapiens, UniProt P34998).
T1 construct: endogenous in cells; host or cells: IMR-32 cells, transformed with 2.5 µM 5'-bromo-2'-deoxyuridine for 10 days; membrane preparation
T1 sequence (P34998 24-415): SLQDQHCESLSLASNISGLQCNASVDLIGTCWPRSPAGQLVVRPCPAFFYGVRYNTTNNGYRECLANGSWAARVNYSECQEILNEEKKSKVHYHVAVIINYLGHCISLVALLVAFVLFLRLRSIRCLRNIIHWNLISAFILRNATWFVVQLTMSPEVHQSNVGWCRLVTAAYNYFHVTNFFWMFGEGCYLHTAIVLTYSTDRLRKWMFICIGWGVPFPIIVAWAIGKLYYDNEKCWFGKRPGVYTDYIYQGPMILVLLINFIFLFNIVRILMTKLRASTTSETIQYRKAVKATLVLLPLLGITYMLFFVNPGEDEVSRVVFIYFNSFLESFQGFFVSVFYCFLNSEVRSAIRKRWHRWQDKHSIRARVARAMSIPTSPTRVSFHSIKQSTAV
The assay is described as follows: CRF1 receptor radioligand binding assay ([125I]-oCRF competition, IMR-32 cell membranes). The note with it: IMR-32 cell membranes, [125I]-oCRF 100 pM; read-out: Ki (CRF-1R). Here is the method: CRF1 receptor antagonists, by occupying the same receptors, blocks the accessibility of the receptors to CRF, a hypothalamic factor mediating body's responses to physiological and psychological stress. The following radioligand binding assay examines the ability of the antagonists to bind the CRF1 receptors by assessing their ability to compete with binding of CRF to the receptors in cell membrane.
Tissue culture and membrane preparation. IMR-32 cells were grown at 37° C. in 5% CO2 as a monolayer in medium consisting of MEM supplemented with 10% heat-inactivated fetal bovine serum, 0.1 mM nonessential amino acids, 1 mM sodium pyruvate and 2 mM L-glutamine. […] After transformation, cells were rinsed twice with phosphate-buffered saline, and incubated for 10–15 min. at 4° C. in homogenization buffer consisting of 50 mM Tris (pH 7.2), 10 mM MgCl2 and 2 mM EGTA. Cells were transferred from plates to polypropylene tubes (16×100 mm), homogenized and centrifuged at 32,000×g for 15 min. Pellets were resuspended by homogenization in buffer and centrifuged at 32,000×g for 15 min. Pellets were resuspended in homogenization buffer then stored at −80° C. until needed.
Radioligand binding assays. […] The assay buffer consisted of 50 mM Tris (pH 7.2), 10 mM MgCl2, 0.5% BSA, 0.005% Triton X-100, 10 μg/mL aprotinin and 10 μg/mL leupeptin. Assays were stopped by addition of ice-cold wash buffer (50 mM Tris, pH 7.4 and 0.2% BSA). Filtration over glass fiber filters (Whatman GF/B) previously soaked in 50 mM Tris, pH 7.2 and 1% BSA was carried out using a Brandel cell harvester. Filters were washed with 10 mL of ice-cold wash buffer. Non-specific binding was defined with 10 μM oCRF. IC50 values for oCRF and test compounds were calculated by nonlinear regression using a one-site binding curve (GraphPad Prism).
With `CCCN(CC1CC1)C(=O)c1c(C)nc2n1CCN2c1c(C)cc(C)cc1C` [Example 1, 2-Methyl-7-(2,4,6-trimethyl-phenyl)-6,7-dihydro-5H-imidazo[1,2-α]imidazole-3-carboxylic acid cyclopropylmethyl-propyl-amide], the inhibitory constant (Ki) was below 1000 nM.

As to `CCCN(CC1CC1)C(=O)c1c(CC)nc2n1CCN2c1c(C)cc(C)cc1C` [Example 2, 2-Ethyl-7-(2,4,6-trimethyl-phenyl)-6,7-dihydro-5H-imidazo[1,2-α]imidazole-3-carboxylic acid cyclopropylmethyl-propyl-amide], the inhibition constant Ki is below 100 nM.

Consider `CCc1nc2n(c1C(=O)N(CC1CC1)CC(F)(F)F)CCN2c1c(C)cc(C)cc1C` [Example 5, 2-Ethyl-7-(2,4,6-trimethyl-phenyl)-6,7-dihydro-5H-imidazo[1,2-a]imidazole-3-carboxylic acid cyclopropylmethyl-(2,2,2-trifluoro-ethyl)-amide], for which the inhibition constant Ki is below 100 nM.

`CCCN(CC(F)(F)F)C(=O)c1c(CC)nc2n1CCN2c1c(C)cc(C)cc1C` [Example 6, 2-Ethyl-7-(2,4,6-trimethyl-phenyl)-6,7-dihydro-5H-imidazo[1,2-a]imidazole-3-carboxylic acid propyl-(2,2,2-trifluoro-ethyl)-amide]: the Ki was below 100 nM.

For the compound `CCc1nc2n(c1C(=O)N(CC1CC1)CC(F)(F)C(F)(F)F)CCN2c1c(C)cc(C)cc1C` [Example 7, 2-Ethyl-7-(2,4,6-trimethyl-phenyl)-6,7-dihydro-5H-imidazo[1,2-a]imidazole-3-carboxylic acid cyclopropylmethyl-(3,3,3,2,2-pentafluoro-propyl)-amide], the Ki is below 100 nM.

Turning to `CCc1nc2n(c1C(=O)N(CC1CC1)CC1CC1)CCN2c1c(C)cc(C)cc1C` [Example 8, 2-Ethyl-7-(2,4,6-trimethyl-phenyl)-6,7-dihydro-5H-imidazo[1,2-a]imidazole-3-carboxylic acid cyclopropylmethyl-(cyclopropylmethyl)-amide], the Ki is below 100 nM.

Take `CCc1nc2n(c1C(=O)N(CCC(F)(F)F)CC1CC1)CCN2c1c(C)cc(C)cc1C` [Example 9, 2-Ethyl-7-(2,4,6-trimethyl-phenyl)-6,7-dihydro-5H-imidazo[1,2-a]imidazole-3-carboxylic acid cyclopropylmethyl-(3,3,3-trifluoro-propyl)-amide]: the Ki is below 100 nM.

On to `CCc1nc2n(c1C(=O)N(CC)CC1CC1)CCN2c1c(C)cc(C)cc1C` [Example 10, 2-Ethyl-7-(2,4,6-trimethyl-phenyl)-6,7-dihydro-5H-imidazo[1,2-a]imidazole-3-carboxylic acid cyclopropylmethyl-(ethyl)-amide], for which the Ki was below 100 nM.

Regarding `CCCN(CCC)C(=O)c1c(CC)nc2n1CCN2c1c(C)cc(C)cc1C` [Example 11, 2-Ethyl-7-(2,4,6-trimethyl-phenyl)-6,7-dihydro-5H-imidazo[1,2-a]imidazole-3-carboxylic acid dipropyl-amide], the Ki was below 1000 nM.

Take `CCCN(CCC(F)(F)F)C(=O)c1c(CC)nc2n1CCN2c1c(C)cc(C)cc1C` [Example 12, 2-Ethyl-7-(2,4,6-trimethyl-phenyl)-6,7-dihydro-5H-imidazo[1,2-a]imidazole-3-carboxylic acid propyl-(3,3,3-trifluoropropyl)-amide]: the inhibition constant (Ki) is below 1000 nM.

With `CCCN(CCc1ccccc1)C(=O)c1c(CC)nc2n1CCN2c1c(C)cc(C)cc1C` [Example 13, 2-Ethyl-7-(2,4,6-trimethyl-phenyl)-6,7-dihydro-5H-imidazo[1,2-a]imidazole-3-carboxylic acid phenethyl-propyl-amide], the inhibitory constant (Ki) is below 1000 nM.

With `CCc1nc2n(c1C(=O)N(CCC(F)(F)F)Cc1ccc(Cl)cc1)CCN2c1c(C)cc(C)cc1C` [Example 14, 2-Ethyl-7-(2,4,6-trimethyl-phenyl)-6,7-dihydro-5H-imidazo[1,2-a]imidazole-3-carboxylic acid (4-chloro-benzyl)-(3,3,3-trifluoro-propyl)-amide], the Ki is below 1000 nM.

On to `CCCCN(CC)C(=O)c1c(CC)nc2n1CCN2c1c(C)cc(C)cc1C` [Example 15, 2-Ethyl-7-(2,4,6-trimethyl-phenyl)-6,7-dihydro-5H-imidazo[1,2-a]imidazole-3-carboxylic acid butyl-ethyl-amide], for which the Ki was below 1000 nM.

With `CCc1nc2n(c1C(=O)N(CC)CCC1CC1)CCN2c1c(C)cc(C)cc1C` [Example 16, 2-Ethyl-7-(2,4,6-trimethyl-phenyl)-6,7-dihydro-5H-imidazo[1,2-a]imidazole-3-carboxylic acid (2-cyclopropyl-ethyl)-ethyl-amide], the inhibitory constant (Ki) is below 1000 nM.

`CCc1nc2n(c1C(=O)N(CCC1CC1)CCC(F)(F)F)CCN2c1c(C)cc(C)cc1C` [Example 17, 2-Ethyl-7-(2,4,6-trimethyl-phenyl)-6,7-dihydro-5H-imidazo[1,2-a]imidazole-3-carboxylic acid (2-cyclopropyl-ethyl)-(3,3,3-trifluoro-propyl)-amide]: the inhibition constant (Ki) is below 1000 nM.

As for `CCc1nc2n(c1C(=O)N(CCC(F)(F)F)Cc1ccccc1)CCN2c1c(C)cc(C)cc1C` [Example 18, 2-Ethyl-7-(2,4,6-trimethyl-phenyl)-6,7-dihydro-5H-imidazo[1,2-a]imidazole-3-carboxylic acid benzyl-(3,3,3-trifluoro-propyl)-amide], the Ki is below 1000 nM.

For `C=CCN(CCC)C(=O)c1c(CC)nc2n1CCN2c1c(C)cc(C)cc1C` [Example 19, 2-Ethyl-7-(2,4,6-trimethyl-phenyl)-6,7-dihydro-5H-imidazo[1,2-a]imidazole-3-carboxylic acid allyl-propyl-amide], the inhibitory constant (Ki) is below 1000 nM.

In the case of `CCCN(CCC1CC1)C(=O)c1c(CC)nc2n1CCN2c1c(C)cc(C)cc1C` [Example 20, 2-Ethyl-7-(2,4,6-trimethyl-phenyl)-6,7-dihydro-5H-imidazo[1,2-a]imidazole-3-carboxylic acid (2-cyclopropyl-ethyl)-propyl-amide], the Ki was below 1000 nM.

Take `CCCN(Cc1ccc(Cl)cc1)C(=O)c1c(CC)nc2n1CCN2c1c(C)cc(C)cc1C` [Example 21, 2-Ethyl-7-(2,4,6-trimethyl-phenyl)-6,7-dihydro-5H-imidazo[1,2-a]imidazole-3-carboxylic acid (4-chloro-benzyl)-propyl-amide]: the Ki was below 10000 nM.

Consider `C=CCN(CC=C)C(=O)c1c(CC)nc2n1CCN2c1c(C)cc(C)cc1C` [Example 22, 2-Ethyl-7-(2,4,6-trimethyl-phenyl)-6,7-dihydro-5H-imidazo[1,2-a]imidazole-3-carboxylic acid diallylamide], for which the Ki was below 10000 nM.

Consider `CCc1nc2n(c1C(=O)N(CCc1ccccc1)CCC(F)(F)F)CCN2c1c(C)cc(C)cc1C` [Example 23, 2-Ethyl-7-(2,4,6-trimethyl-phenyl)-6,7-dihydro-5H-imidazo[1,2-a]imidazole-3-carboxylic acid phenethyl-(3,3,3-trifluoro-propyl)-amide], for which the Ki is below 10000 nM.

Consider `CCc1nc2n(c1C(=O)N(CCC(F)(F)F)Cc1cccc(F)c1)CCN2c1c(C)cc(C)cc1C` [Example 24, 2-Ethyl-7-(2,4,6-trimethyl-phenyl)-6,7-dihydro-5H-imidazo[1,2-a]imidazole-3-carboxylic acid (3-fluoro-benzyl)-(3,3,3-trifluoro-propyl)-amide], for which the inhibitory constant (Ki) is below 10000 nM.
